Data as given in a melting point compilation (Tetko et al.).

| melting point [°C] | Structure (SMILES) |
| --- | --- |
| 294 to 296 | Nc1nc(-c2ccc([N+](=O)[O-])cc2)no1 |
| 284 to 286 | COc1ccc(-c2n[nH]c(S)nc2=O)cc1 |
| 154 to 156 | Cc1csc2nc(CO)cc(=O)n12 |
| 157 to 159 | CCC(NC(=O)OC(C)(C)C)(C(N)=O)C(C)C (centres undefined) |
| 178 to 180 | CN(C)C(=O)c1ccc(C(=O)O)cc1 |
| 77 to 79 | CC(C)N1C(=O)C(=O)c2ccccc21 |
| 171 to 173 | Nc1n[nH]c2cccc(F)c12 |
| 278 to 280 | O=c1ccc2cc(S(=O)(=O)Cl)ccc2[nH]1 |
| 313 to 315 | Nc1c(C(=O)O)cc(Br)c2c1C(=O)c1ccccc1C2=O |
| 99 to 101 | CCNc1ccc(C)nn1 |
| 202 to 204 | COc1ccc(S(N)(=O)=O)c(C)c1C |
| 87 to 89 | CCn1c(C)cc(C=O)c1C |
| 53 to 55 | C=CCNS(=O)(=O)C(C)(C)C |
| 152 to 154 | CCn1c(N)nc2ccccc21 |
| 240 to 242 | Cn1ncnc1-c1ccc(C(=O)O)cc1 |
| 125 to 127 | NNC(=O)c1cc(-c2ccccc2)on1 |

| melting point [°C] | Structure (SMILES) |
| --- | --- |
| 202 to 204 | CC(=O)Nc1cccc(F)c1C(=O)O |
| 177 to 179 | Cc1ccc2ncc(C(=O)O)n2c1 |
| 193 to 195 | O=c1[nH]ccc2occc12 |
| 239 to 241 | Cc1cn2c(=O)c(C(=O)O)cnc2s1 |
| 118 to 120 | NS(=O)(=O)Cc1ccccc1Br |
| 59 to 61 | COc1ccc2[nH]c3c(c2c1)CC(C)CC3 (centres undefined) |
| 117 to 119 | Cc1cc(SCC(=O)O)nc2ccccc12 |
| 71 to 75 | N#Cc1cc(Cl)ccc1N=C=O |
| 82 to 84 | O=C(CCl)NCCc1c[nH]c2ccccc12 |
| 146 to 148 | COc1cc(C)c(C(=O)O)cc1OC |
| 188 to 190 | Cc1cc(C)cc(C(=O)N2CCCC(C(=O)O)C2)c1 (centres undefined) |
| 55 to 57 | Cc1cccc(-c2[nH]ncc2C=O)c1 |
| 224 to 226 | O=C1CCc2cc(Br)c(S(=O)(=O)Cl)cc2N1 |
| 99 to 101 | Nc1ccc([N+](=O)[O-])cc1Br |
| 69 to 71 | CCOC(C)c1ncc[nH]1 (centres undefined) |

Second part, the compound before the results:

| Structure (SMILES) | melting point [°C] |
| --- | --- |
| OC(CN1CCCC1)C(F)(F)F (centres undefined) | 78 to 80 |
| Nc1cc(Br)ccc1-n1cccn1 | 69 to 71 |
| N#CC1(C(=O)O)CCc2ccccc2C1 (centres undefined) | 123 to 125 |
| Fc1cc(Br)cc2c(Cl)ccnc12 | 149 to 151 |
| O=C(O)CSCc1coc(-c2ccccc2)n1 | 124 to 126 |
| Cn1cc([N+](=O)[O-])cc1C(=O)NCC(=O)O | 130 to 132 |
| O=C(CCl)Nc1sc2c(c1C(=O)c1ccccc1)CCCC2 | 110 to 112 |
| CN(C)C(=O)Sc1cnc2nccn2c1 | 129 to 131 |
| O=C1C(Br)CCCN1c1ccccc1F (centres undefined) | 54 to 56 |
| COCC1(C)CNC(=O)C1 (centres undefined) | 62 to 64 |
| O=C(c1ccc(Br)cc1)C(F)(F)F | 29 to 31 |
| CCCCCCCCCCCCSc1nc2sc3c(c2c(=O)n1-c1ccccc1)CCCC3 | 84 to 86 |
| O=C(O)CNC(=O)c1ccc2[nH]nnc2c1 | 215 to 217 |
| O=C(O)c1cccc(Oc2cnccn2)c1 | 112 to 114 |
| O=C(O)c1nn(-c2ccccc2F)c2c1CCC2 | 194 to 196 |
| Fc1cccc(-c2nnc(CCl)o2)c1 | 65 to 67 |
| O=C(CCl)c1c(-c2ccc(F)cc2)[nH]c2ccccc12 | 158 to 160 |
| O=c1ccccn1CCBr | 126 to 128 |
| OCc1ccc2cn[nH]c2c1 | 158 to 160 |
| CC(O)c1ccccc1NC(=O)c1ccccc1 (centres undefined) | 111 to 113 |
| OCc1c(Cl)nc2ccccn12 | 177 to 179 |
| Nc1ccc(CCN2CCOC2=O)cc1 | 192 to 194 |
| O=Cc1ccc(-c2ccc(Br)cc2)s1 | 110 to 112 |
